Experimental findings from patent publication US10787434B2, “Benzopiperdine derivatives and their use in the treatment of cancer and hemoglobinopathies” (CTXT PTY LTD, priority 2016, dated 2020) are described below.

Molecules are shown by their SMILES. Counter-ions that a name gives are not always drawn.

The test system of test [1] is symmetrical dimethylation of arginine (Di-Methyl Histone H4 Arginine 3) in cell line TE11. Description: PRMT5 Biomarker Assay. The format is cell-based. Conditions: Homo sapiens, TE-11; TE11 cells, 72 hours incubation, mean Alexa647-related intensity per cell. How it is done:
PRMT5 Biomarker Assay Compounds of the invention may be tested for potency to inhibit symmetrical dimethylation of arginine in the following assay: The cell line TE11 was seeded at a density of 6,000 cells per well in 96 well optical quality tissue culture plates in DME medium and 10% foetal bovine serum, and allowed to adhere for 5 hours under standard culture conditions (37 degree Celsius, 5% CO2). Compound dilutions prepared in DMSO were added to the medium, with negative control wells reserved for treatment with DMSO only and maximum inhibition controls receiving a potent PRMT5 inhibitor compound at 1 μM concentration. After incubation for 72 hours, the cells were fixed with 3.7% formaldehyde in PBS for 30 minutes at room temperature, washed with phosphate buffer saline and blocked with Odyssey blocking buffer (LI-COR, Lincoln, Nebr.). Rabbit anti-Di-Methyl Histone H4 Arginine 3 specific antibody (Epigentek) in Odyssey blocking buffer was added and incubated for 14 hours at 4 degree Celsius. After washing, anti-rabbit secondary antibody labelled with Alexa647 dye (LifeTechnologies) and Hoechst 33342 (1 μg/mL, SigmaAldrich) were added for 1 hour incubation. Plates were washed and read on a PerkinElmer Envision 2103 in fluorescence intensity scanning mode (24 scans across the well area). The plates were imaged on a PerkinElmer Phenix high content imaging platform. Using a Columbus image analysis pipeline, individual nuclei were located by Hoechst 33342 stain and the methylation level was calculated from the Alexa647-related intensity in the same area. IC50 values were obtained from the mean Alexa647-related intensity per cell by calculating percent inhibition (%1) for each well relative to controls on the same plate (% l=(1-CN)/(CP−CN) where CN/CP are the averages of the negative/maximum inhibition controls, respectively), then fitting the %1 data vs. compound concentration [I] to % I=(A+((B−A)/(1+((C/[I])^D)))) where A is the lower asymptote, B is the upper asymptote, C is the IC50 value, and D is the slope.

The target of test [2] is Full-length PRMT5 enzyme co-expressed with His6-MEP50 (Homo sapiens (Human), UniProt O14744). Description: PRMT5 Biochemical Assay. The settings on record: Transcreener EPIGEN methyltransferase assay, histone H4 derived peptide substrate, 4 hours at 37 degree Celsius. Here is the method: Compounds of the invention may be tested for in vitro activity in the following assay:
A histone H4 derived peptide is used as substrate (amino acid sequence: […]NH2). Full-length PRMT5 enzyme (NCBI Reference sequence NP_006100.2) was co-expressed with His6-MEP50 in insect cells and purified via Nickel immobilized metal affinity and gel filtration chromatography (“the enzyme”).
The 6 μL reactions are run in Greiner brand black 384-well low volume assay plates. All reactions contained assay buffer (phosphate buffered saline, 0.01% (v/v) Tween-20, 0.01% (w/v) albumin from chicken egg white, 1 mM Dithiothreitol, 1 μM peptide substrate, 1 μM S-Adenosyl methionine, and 15 ng/reaction enzyme, with the enzyme being omitted from negative control reactions. Compounds were added in a volume of 100 nL from dilution series prepared in DMSO, positive and negative control reactions receiving the same volume DMSO without compound. The plates were sealed with adhesive seals and incubated for 4 hours at 37 degree Celsius. Reaction progress was measured using the Transcreener™ EPIGEN methyltransferase assay (BellBrook Labs, Madison, Wis.) as recommended by the manufacturer. To each reaction 2 μL detection mix were added, containing coupling enzymes, fluorescence polarisation tracer, and AMP antibody. Plates were incubated for 90 minutes before being read on a PerkinElmer EnVision™ plate reader in fluorescence polarisation mode. IC50 values were obtained from the raw readings by calculating percent inhibition (%1) for each reaction relative to controls on the same plate (% I=(I−CN)/(CP−CN) where CN/CP are the averages of the negative/positive reactions, respectively), then fitting the %1 data vs. compound concentration [I] to % I=(A+((B−A)/(1+((C/[I])^D)))) where A is the lower asymptote, B is the upper asymptote, C is the IC50 value, and D is the slope.

Sequence of Full-length PRMT5 enzyme co-expressed with His6-MEP50 (O14744 whole entry): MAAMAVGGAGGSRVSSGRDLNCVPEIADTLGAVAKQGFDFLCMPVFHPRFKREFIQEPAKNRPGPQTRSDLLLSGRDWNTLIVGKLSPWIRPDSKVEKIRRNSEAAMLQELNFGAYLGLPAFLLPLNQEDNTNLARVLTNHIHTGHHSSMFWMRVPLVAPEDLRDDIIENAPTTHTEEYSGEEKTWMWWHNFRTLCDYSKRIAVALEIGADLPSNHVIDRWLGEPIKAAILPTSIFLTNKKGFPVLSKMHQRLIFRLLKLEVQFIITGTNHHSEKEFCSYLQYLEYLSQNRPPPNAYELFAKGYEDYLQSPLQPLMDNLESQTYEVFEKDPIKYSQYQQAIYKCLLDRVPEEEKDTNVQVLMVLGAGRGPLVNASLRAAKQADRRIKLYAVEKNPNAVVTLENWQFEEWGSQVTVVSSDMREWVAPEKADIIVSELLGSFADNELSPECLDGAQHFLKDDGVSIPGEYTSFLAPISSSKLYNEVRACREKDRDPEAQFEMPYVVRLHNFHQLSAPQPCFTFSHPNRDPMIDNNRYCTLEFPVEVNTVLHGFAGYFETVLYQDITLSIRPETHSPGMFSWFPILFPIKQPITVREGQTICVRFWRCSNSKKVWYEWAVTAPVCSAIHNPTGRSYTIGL
Sequence of Full-length PRMT5 enzyme co-expressed with His6-MEP50 (Q9BQA1 whole entry partner): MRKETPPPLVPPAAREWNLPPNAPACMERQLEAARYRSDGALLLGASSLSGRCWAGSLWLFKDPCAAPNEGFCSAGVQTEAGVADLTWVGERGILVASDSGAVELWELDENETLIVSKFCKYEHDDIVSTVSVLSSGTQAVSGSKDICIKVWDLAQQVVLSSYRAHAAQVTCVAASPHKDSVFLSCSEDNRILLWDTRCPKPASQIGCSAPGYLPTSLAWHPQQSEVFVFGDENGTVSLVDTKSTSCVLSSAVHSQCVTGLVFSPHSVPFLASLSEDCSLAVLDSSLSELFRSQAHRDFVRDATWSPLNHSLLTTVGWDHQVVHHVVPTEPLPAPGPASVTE

Consider `CCOc1nc(N2CCN(C(=O)OC)CC2)ccc1C(=O)NC[C@@H](O)[C@@H]1Cc2ccccc2CN1` [Example 1, Methyl 4-(6-ethoxy-5-(((R)-2-hydroxy-2-((S)-1,2,3,4-tetrahydroisoquinolin-3-yl)ethyl)carbamoyl)pyridin-2-yl)piperazine-1-carboxylate dihydrochloride], for which the IC50 (usually the concentration needed to halve the response being measured) stood at 0.2 nM in test [1] and 37 nM in test [2].

As for `CCOc1nc(N2CCN(C(C)=O)CC2)ccc1C(=O)NC[C@@H](O)[C@@H]1Cc2ccccc2CN1` [Example 4, 6-(4-Acetylpiperazin-1-yl)-2-ethoxy-N-((R)-2-hydroxy-2-((S)-1,2,3,4-tetrahydroisoquinolin-3-yl)ethyl)nicotinamide dihydrochloride], the results for the concentration for half-maximal inhibition (IC50) in test [1] and in test [2] were 1.3 nM and 26 nM, respectively.

Consider `CCOc1nc(N2CCOCC2)ccc1C(=O)NC[C@@H](O)[C@@H]1Cc2ccccc2CN1` [Example 9, 2-Ethoxy-N—((R)-2-hydroxy-2-((S)-1,2,3,4-tetrahydroisoquinolin-3-yl)ethyl)-6-morpholinonicotinamide], for which the IC50 is 31.5 nM in test [1] and 251 nM in test [2].

Consider `CCOc1cnc(CC2CCN(C(C)=O)CC2)cc1C(=O)NC[C@@H](O)[C@@H]1Cc2ccccc2CN1` [Example 6, 2-((1-acetylpiperidin-4-yl)methyl)-5-ethoxy-N-((R)-2-hydroxy-2-((S)-1,2,3,4-tetrahydroisoquinolin-3-yl)ethyl)isonicotinamide dihydrochloride], for which the IC50 in test [1] came to 75.4 nM; in test [2], 202 nM.

In the case of `CCOc1c(C(=O)NC[C@@H](O)[C@@H]2Cc3ccccc3CN2)ccnc1NC1CCN(C(C)=O)CC1` [Example 8, 2-((1-Acetylpiperidin-4-yl)amino)-3-ethoxy-N—((R)-2-hydroxy-2-((S)-1,2,3,4-tetrahydroisoquinolin-3-yl)ethyl)isonicotinamide Dihydrochloride Salt], the IC50 was determined as 112 nM in test [1] and 135 nM in test [2].

As for `CCOc1nc(N2CCCOCC2)ccc1C(=O)NC[C@@H](O)[C@@H]1Cc2ccccc2CN1` [Example 3, 2-Ethoxy-N-((R)-2-hydroxy-2-((S)-1,2,3,4-tetrahydroisoquinolin-3-yl)ethyl)-6-(1,4-oxazepan-4-yl)nicotinamide dihydrochloride], the IC50 came out at 5.6 nM in test [1] and 70 nM in test [2].

Take `CC(=O)N1CCC(Oc2nccc(C(=O)NC[C@@H](O)[C@@H]3Cc4ccccc4CN3)c2Cl)CC1` [Example 5, 2-((1-Acetylpiperidin-4-yl)oxy)-3-chloro-N-((R)-2-hydroxy-2-((S)-1,2,3,4-tetrahydroisoquinolin-3-yl)ethyl)isonicotinamide dihydrochloride]: the figures for the IC50 in test [1] and in test [2] were 6 nM and 26 nM, respectively.

For `CCOc1nc(OC2CCN(C(C)=O)CC2)ccc1C(=O)NC[C@@H](O)[C@@H]1Cc2ccccc2CN1` [Example 7, 6-((1-acetylpiperidin-4-yl)oxy)-2-ethoxy-N-((R)-2-hydroxy-2-((S)-1,2,3,4-tetrahydroisoquinolin-3-yl)ethyl)nicotinamide hydrochloride salt], the IC50 was determined as 16.5 nM in test [1] and 135 nM in test [2].

With `CCOc1nc(N2CCC(O)CC2)ccc1C(=O)NC[C@@H](O)[C@@H]1Cc2ccccc2CN1` [Example 2, 2-Ethoxy-N-((R)-2-hydroxy-2-((S)-1,2,3,4-tetrahydroisoquinolin-3-yl)ethyl)-6-(4-hydroxypiperidin-1-yl)nicotinamide dihydrochloride], the IC50 worked out at 23.3 nM in test [1] and 102 nM in test [2].
